Measured values published in patent US4029650A, “Novel derivatives of N-(3,4,5-trimethoxy cinnamoyl)piperazine and the process for preparing them” (priority 1974, dated 1977).
Structures can show the parent of a compound that is named as a salt. Where two headings read alike, the source gives them in different places.

Legend:
[1] = Peripheral vasodilatory action: increase of femoral artery flow, anaesthetised dog, intra-arterial; format: in vivo; conditions: 500 μg/kg (0.5 mg/kg) i.a.
[2] = Coronary vasodilatory action: increase of flow in the anterior interventricular artery, anaesthetised dog, intravenous; format: in vivo
[3] = Increase of flow and oxygenation of the coronary veinous sinus, intravenous perfusion; format: in vivo, dog
Method: Furthermore, administered by intravenous perfusion, the derivatives of formula I are capable of increasing the flow and oxygenation of the coronary veinous sinus, the flow of the coronary veinous sinus being measured volumetrically by means of a modified MORAWITZ probe, whilst the oxygen content of the coronary veinous blood is calculated from the rate of hemoglobin saturation measured by hemoreflectometry.

[4] = Cerebral vasodilatory properties: sub-cortical irrigation, anaesthetised cat; format: in vivo; conditions: 8 mg/kg i.v.
Excerpt: Administered to an anaesthetised cat by single intravenous injection, the derivatives of formula I are capable of increasing the sub-cortical irrigation measured according to a technique derived from the thermoconductimetric method of SEYLAZ.

Acute toxicity (mouse) = conditions: in vivo; for mortality: read-out: Percentage mortality; for LD50: read-out: Acute toxicity (DL 50) (converted)
[5] = Antihypertensive properties in genetically hypertensive (vigil SHR) rat; format: in vivo; conditions: for Hypertensive action (vigil SHR rat), effect: 100 mg/kg p.o.
[6] = anaesthetised dog, 4 mg/kg i.v.
[7] = anaesthetised dog, 2 mg/kg i.v.
[8] = 12.7 mg/kg intravenous perfusion
[9] = 17.5 mg/kg intravenous perfusion
[10] = 100 mg/kg po, genetically hypertensive rat
[11] = 12.5 mg/kg i.v. perfused in 10 min. (1 ml/min)

COc1cc(C=CC(=O)N2CCN(CC(=O)N3CCc4ccccc4C3)CC2)cc(OC)c1OC [75 0001, N-(3,4,5-trimethoxycinnamoyl)-N'-(1,2,3,4-tetrahydroisoquinolinocarbonylmethyl)piperazine]
duration of increase of femoral artery flow [1]: 7 min | increase of femoral artery flow [1]: 106% | duration of increase of flow in the anterior interventricular artery [2, 6]: 19 min | increase of flow in the anterior interventricular artery [2, 6]: 45% | Increase of flow of the coronary veinous sinus ([3]; 29 mg/kg intravenous perfusion): 88% | Increase of oxygenation of the coronary veinous sinus ([3]; 29 mg/kg intravenous perfusion): 142% | duration of effect on flow of the coronary veinous sinus ([3]; 29 mg/kg intravenous perfusion): 15 min | duration of effect on oxygenation of the coronary veinous sinus ([3]; 29 mg/kg intravenous perfusion): 60 min | duration of increase in the sub-cortical flow [4]: 22 min | increase in the sub-cortical flow [4]: 105% | mortality (Acute toxicity (mouse); iv, intravenously (mouse), 580 mg/kg): ~50% | LD50 (Acute toxicity (mouse); iv, mouse, i.v.): 580 mg/kg

COc1cc(C=CC(=O)N2CCN(CC(=O)N3CCCCCCC3)CC2)cc(OC)c1OC [74 0678, N-(3,4,5-trimethoxycinnamoyl)-N'-(heptamethyleniminocarbonylmethyl) piperazine oxalate]
duration of increase of femoral artery flow [1]: 4.5 min | increase of femoral artery flow [1]: 226% | duration of increase of flow in the anterior interventricular artery [2, 7]: 8.3 min | increase of flow in the anterior interventricular artery [2, 7]: 148% | Increase of flow of the coronary veinous sinus [3, 8]: 65% | Increase of oxygenation of the coronary veinous sinus [3, 8]: 162% | duration of effect on flow of the coronary veinous sinus [3, 8]: 30 min | duration of effect on oxygenation of the coronary veinous sinus [3, 8]: 60 min | duration of increase in the sub-cortical flow [4]: 5 min | increase in the sub-cortical flow [4]: 45% | mortality (Acute toxicity (mouse); iv, intravenously (mouse), 255 mg/kg): ~50% | LD50 (Acute toxicity (mouse); iv, mouse, i.v.): 255 mg/kg

COc1ccc(CCN(C)C(=O)CN2CCN(C(=O)C=Cc3cc(OC)c(OC)c(OC)c3)CC2)cc1OC [75 0002, N-(3,4,5-trimethoxycinnamoyl)-N'-[N"-methyl N"-(3,4-dimethoxyphenylethyl)aminocarbonylmethyl] piperazine]
duration of increase of femoral artery flow [1]: 8 min | increase of femoral artery flow [1]: 105% | duration of increase of flow in the anterior interventricular artery [2, 6]: 19 min | increase of flow in the anterior interventricular artery [2, 6]: 100% | Increase of flow of the coronary veinous sinus ([3]; 20 mg/kg intravenous perfusion): 124% | Increase of oxygenation of the coronary veinous sinus ([3]; 20 mg/kg intravenous perfusion): 214% | duration of effect on flow of the coronary veinous sinus ([3]; 20 mg/kg intravenous perfusion): 15 min | duration of effect on oxygenation of the coronary veinous sinus ([3]; 20 mg/kg intravenous perfusion): 60 min | mortality (Acute toxicity (mouse); iv, intravenously (mouse), 200 mg/kg): ~50% | LD50 (Acute toxicity (mouse); iv, mouse, i.v.): 200 mg/kg | LD50 (Acute toxicity (mouse); po, mouse, p.o.): 2000 mg/kg | mortality (Acute toxicity (mouse); mouse, po, 2000 mg/kg, orally (mouse), 2 000 mg/kg): 30%

COc1cc(C=CC(=O)N2CCN(CC(=O)N3CCCCC3)CC2)cc(OC)c1OC.O=C(O)/C=C\C(=O)O [74 0479, N-(3,4,5-trimethoxycinnamoyl)-N'-(piperidinocarbonylmethyl) piperazine maleate]
duration of increase of femoral artery flow [1]: 3 min | increase of femoral artery flow [1]: 120% | duration of increase of flow in the anterior interventricular artery [2, 6]: 40 min | increase of flow in the anterior interventricular artery [2, 6]: 190% | Increase of flow of the coronary veinous sinus [3, 9]: 50% | Increase of oxygenation of the coronary veinous sinus [3, 9]: 132% | duration of effect on flow of the coronary veinous sinus [3, 9]: 15 min | duration of effect on oxygenation of the coronary veinous sinus [3, 9]: 30 min | duration of increase in the sub-cortical flow [4]: 47 min | increase in the sub-cortical flow [4]: 58% | animals with systolic arterial pressure lowered by 30 mmHg [5, 10]: 60% | duration of lowering of the systolic arterial pressure [5, 10]: exceeding 24 hours | lowering of the systolic arterial pressure ([5]; 100 mg/kg po, genetically hypertensive rat, in 60% of the animals): 30 mmHg | LD50 (Acute toxicity (mouse); iv, mouse, i.v.): 700 mg/kg | LD50 (Acute toxicity (mouse); po, mouse, p.o.): 2250 mg/kg | mortality (Acute toxicity (mouse); mouse, iv, 700 mg/kg, intravenously (mouse), 700 mg/kg): ~50% | mortality (Acute toxicity (mouse); mouse, po, 250 mg/kg, orally (mouse), 2 250 mg/kg): 50%

COc1cc(C=CC(=O)N2CCN(CC(=O)N3CCCC3)CC2)cc(OC)c1OC [67 350, reference compound]
duration of increase of femoral artery flow [1]: 12 min | increase of femoral artery flow [1]: 82% | duration of increase of flow in the anterior interventricular artery [2, 11]: 60 min | increase of flow in the anterior interventricular artery [2, 11]: 59% | Hypertensive action (vigil SHR rat), effect ([5]; 4 h): -40% | Hypertensive action (vigil SHR rat), effect ([5]; 24 h): -20% | LD50 (Acute toxicity (mouse); iv, mouse, i.v.): 617 mg/kg | LD50 (Acute toxicity (mouse); po, mouse, p.o.): 1000 mg/kg | mortality (Acute toxicity (mouse); mouse, iv, 617 mg/kg, intravenously (mouse), 617 mg/kg): 50% | mortality (Acute toxicity (mouse); mouse, po, 1000 mg/kg, orally (mouse), 1 000 mg/kg): 50%
